Data reported in the NIST ThermoML archive (doi:10.1021/je800251v).
Numbers after ± are expanded uncertainties.

Settings: Liquid

CCCCC(=O)OCC [ethyl pentanoate]
Settings | mass density [kg/m3]
298.15 K, 100 kPa | 870.7 ± 0.8
298.15 K, 1000 kPa | 871.5 ± 0.9
298.15 K, 2000 kPa | 872.4 ± 0.9
298.15 K, 2780 kPa | 873 ± 0.9
298.15 K, 3000 kPa | 873.2 ± 0.9
298.15 K, 5000 kPa | 875.1 ± 1
298.15 K, 10000 kPa | 879.4 ± 1.2
298.15 K, 15000 kPa | 883.4 ± 1.3
298.15 K, 20000 kPa | 887.3 ± 1.5
298.15 K, 25000 kPa | 891 ± 1.6
298.15 K, 30000 kPa | 894.6 ± 1.7
298.15 K, 35000 kPa | 898.1 ± 1.8
303.15 K, 100 kPa | 865.5 ± 0.8
303.15 K, 1000 kPa | 866.4 ± 0.9
303.15 K, 2000 kPa | 867.4 ± 0.9
303.15 K, 2780 kPa | 868.1 ± 0.9
303.15 K, 3000 kPa | 868.3 ± 0.9
303.15 K, 5000 kPa | 870.1 ± 1
303.15 K, 10000 kPa | 874.5 ± 1.2
303.15 K, 15000 kPa | 878.7 ± 1.3
303.15 K, 20000 kPa | 882.6 ± 1.5
303.15 K, 25000 kPa | 886.5 ± 1.6
303.15 K, 30000 kPa | 890.2 ± 1.8
303.15 K, 35000 kPa | 893.8 ± 1.9
308.15 K, 100 kPa | 860.3 ± 0.9
308.15 K, 1000 kPa | 861.2 ± 0.9
308.15 K, 2000 kPa | 862.1 ± 0.9
308.15 K, 2780 kPa | 862.9 ± 1
308.15 K, 3000 kPa | 863.1 ± 1
308.15 K, 5000 kPa | 865 ± 1
308.15 K, 10000 kPa | 869.5 ± 1.2
308.15 K, 15000 kPa | 873.8 ± 1.4
308.15 K, 20000 kPa | 877.8 ± 1.5
308.15 K, 25000 kPa | 881.8 ± 1.7
308.15 K, 30000 kPa | 885.6 ± 1.8
308.15 K, 35000 kPa | 889.2 ± 1.9
313.15 K, 100 kPa | 855 ± 0.9
313.15 K, 1000 kPa | 855.9 ± 0.9
313.15 K, 2000 kPa | 856.9 ± 0.9
313.15 K, 2780 kPa | 857.7 ± 1
313.15 K, 3000 kPa | 857.9 ± 1
313.15 K, 5000 kPa | 859.9 ± 1.1
313.15 K, 10000 kPa | 864.5 ± 1.2
313.15 K, 15000 kPa | 868.9 ± 1.4
313.15 K, 20000 kPa | 873 ± 1.6
313.15 K, 25000 kPa | 877 ± 1.7
313.15 K, 30000 kPa | 880.9 ± 1.9
313.15 K, 35000 kPa | 884.6 ± 2
318.15 K, 100 kPa | 849.8 ± 0.9
318.15 K, 1000 kPa | 850.6 ± 0.9
318.15 K, 2000 kPa | 851.7 ± 1
318.15 K, 2780 kPa | 852.4 ± 1
318.15 K, 3000 kPa | 852.7 ± 1
318.15 K, 5000 kPa | 854.6 ± 1.1
318.15 K, 10000 kPa | 859.4 ± 1.3
318.15 K, 15000 kPa | 863.9 ± 1.5
318.15 K, 20000 kPa | 868.2 ± 1.6
318.15 K, 25000 kPa | 872.3 ± 1.8
318.15 K, 30000 kPa | 876.3 ± 1.9
318.15 K, 35000 kPa | 880.1 ± 2.1
323.15 K, 100 kPa | 844.4 ± 0.9
323.15 K, 1000 kPa | 845.3 ± 0.9
323.15 K, 2000 kPa | 846.4 ± 1
323.15 K, 2780 kPa | 847.2 ± 1
323.15 K, 3000 kPa | 847.4 ± 1
323.15 K, 5000 kPa | 849.4 ± 1.1
323.15 K, 10000 kPa | 854.3 ± 1.3
323.15 K, 15000 kPa | 859 ± 1.5
323.15 K, 20000 kPa | 863.4 ± 1.7
323.15 K, 25000 kPa | 867.6 ± 1.8
323.15 K, 30000 kPa | 871.7 ± 2
323.15 K, 35000 kPa | 875.5 ± 2.1
328.15 K, 100 kPa | 839.1 ± 0.9
328.15 K, 1000 kPa | 840 ± 1
328.15 K, 2000 kPa | 841.1 ± 1
328.15 K, 2780 kPa | 842 ± 1
328.15 K, 3000 kPa | 842.3 ± 1
328.15 K, 5000 kPa | 844.4 ± 1.1
328.15 K, 10000 kPa | 849.4 ± 1.3
328.15 K, 15000 kPa | 854.2 ± 1.5
328.15 K, 20000 kPa | 858.7 ± 1.7
328.15 K, 25000 kPa | 863 ± 1.9
328.15 K, 30000 kPa | 867.1 ± 2
328.15 K, 35000 kPa | 871.1 ± 2.2
333.15 K, 100 kPa | 833.7 ± 0.9
333.15 K, 1000 kPa | 834.7 ± 1
333.15 K, 2000 kPa | 836 ± 1
333.15 K, 2780 kPa | 836.9 ± 1
333.15 K, 3000 kPa | 837.1 ± 1.1
333.15 K, 5000 kPa | 839.3 ± 1.1
333.15 K, 10000 kPa | 844.5 ± 1.4
333.15 K, 15000 kPa | 849.5 ± 1.6
333.15 K, 20000 kPa | 854.1 ± 1.7
333.15 K, 25000 kPa | 858.6 ± 1.9
333.15 K, 30000 kPa | 862.9 ± 2.1
333.15 K, 35000 kPa | 867 ± 2.2
338.15 K, 100 kPa | 828.4 ± 0.9
338.15 K, 1000 kPa | 829.5 ± 1
338.15 K, 2000 kPa | 830.7 ± 1
338.15 K, 2780 kPa | 831.5 ± 1.1
338.15 K, 3000 kPa | 831.8 ± 1.1
338.15 K, 5000 kPa | 834 ± 1.2
338.15 K, 10000 kPa | 839.4 ± 1.4
338.15 K, 15000 kPa | 844.5 ± 1.6
338.15 K, 20000 kPa | 849.3 ± 1.8
338.15 K, 25000 kPa | 853.9 ± 2
338.15 K, 30000 kPa | 858.2 ± 2.1
338.15 K, 35000 kPa | 862.4 ± 2.3
343.15 K, 100 kPa | 823 ± 1
343.15 K, 1000 kPa | 824.1 ± 1
343.15 K, 2000 kPa | 825.3 ± 1
343.15 K, 2780 kPa | 826.2 ± 1.1
343.15 K, 3000 kPa | 826.5 ± 1.1
343.15 K, 5000 kPa | 828.8 ± 1.2
343.15 K, 10000 kPa | 834.4 ± 1.4
343.15 K, 15000 kPa | 839.6 ± 1.6
343.15 K, 20000 kPa | 844.5 ± 1.8
343.15 K, 25000 kPa | 849.2 ± 2
343.15 K, 30000 kPa | 853.7 ± 2.2
343.15 K, 35000 kPa | 858 ± 2.3
348.15 K, 100 kPa | 817.7 ± 1
348.15 K, 1000 kPa | 818.7 ± 1
348.15 K, 2000 kPa | 820 ± 1.1
348.15 K, 2780 kPa | 821 ± 1.1
348.15 K, 3000 kPa | 821.3 ± 1.1
348.15 K, 5000 kPa | 823.7 ± 1.2
348.15 K, 10000 kPa | 829.4 ± 1.4
348.15 K, 15000 kPa | 834.8 ± 1.7
348.15 K, 20000 kPa | 839.9 ± 1.9
348.15 K, 25000 kPa | 844.7 ± 2.1
348.15 K, 30000 kPa | 849.3 ± 2.2
348.15 K, 35000 kPa | 853.6 ± 2.4
353.15 K, 100 kPa | 812.2 ± 1
353.15 K, 1000 kPa | 813.3 ± 1
353.15 K, 2000 kPa | 814.6 ± 1.1
353.15 K, 2780 kPa | 815.6 ± 1.1
353.15 K, 3000 kPa | 815.9 ± 1.1
353.15 K, 5000 kPa | 818.4 ± 1.2
353.15 K, 10000 kPa | 824.3 ± 1.5
353.15 K, 15000 kPa | 829.9 ± 1.7
353.15 K, 20000 kPa | 835.1 ± 1.9
353.15 K, 25000 kPa | 840 ± 2.1
353.15 K, 30000 kPa | 844.7 ± 2.3
353.15 K, 35000 kPa | 849.1 ± 2.5
363.15 K, 100 kPa | 801.2 ± 1
363.15 K, 1000 kPa | 802.5 ± 1.1
363.15 K, 2000 kPa | 803.9 ± 1.1
363.15 K, 2780 kPa | 805 ± 1.2
363.15 K, 3000 kPa | 805.5 ± 1.2
363.15 K, 5000 kPa | 808.1 ± 1.3
363.15 K, 10000 kPa | 814.6 ± 1.5
363.15 K, 15000 kPa | 820.5 ± 1.8
363.15 K, 20000 kPa | 826 ± 2
363.15 K, 25000 kPa | 831.2 ± 2.2
363.15 K, 30000 kPa | 836 ± 2.4
363.15 K, 35000 kPa | 840.8 ± 2.6
373.15 K, 100 kPa | 790.7 ± 1
373.15 K, 1000 kPa | 792 ± 1.1
373.15 K, 2000 kPa | 793.5 ± 1.2
373.15 K, 2780 kPa | 794.7 ± 1.2
373.15 K, 3000 kPa | 795 ± 1.2
373.15 K, 5000 kPa | 797.9 ± 1.3
373.15 K, 10000 kPa | 804.8 ± 1.6
373.15 K, 15000 kPa | 810.9 ± 1.8
373.15 K, 20000 kPa | 816.7 ± 2.1
373.15 K, 25000 kPa | 822.2 ± 2.3
373.15 K, 30000 kPa | 827.3 ± 2.5
373.15 K, 35000 kPa | 832.3 ± 2.7
383.15 K, 100 kPa | 779.9 ± 1.1
383.15 K, 1000 kPa | 781.3 ± 1.1
383.15 K, 2000 kPa | 783 ± 1.2
383.15 K, 2780 kPa | 784.2 ± 1.2
383.15 K, 3000 kPa | 784.5 ± 1.2
383.15 K, 5000 kPa | 787.6 ± 1.4
383.15 K, 10000 kPa | 795 ± 1.6
383.15 K, 15000 kPa | 801.5 ± 1.9
383.15 K, 20000 kPa | 807.6 ± 2.1
383.15 K, 25000 kPa | 813.4 ± 2.4
383.15 K, 30000 kPa | 818.9 ± 2.6
383.15 K, 35000 kPa | 824 ± 2.8
393.15 K, 100 kPa | 769 ± 1.1
393.15 K, 1000 kPa | 770.5 ± 1.2
393.15 K, 2000 kPa | 772.3 ± 1.2
393.15 K, 2780 kPa | 773.6 ± 1.3
393.15 K, 3000 kPa | 774.1 ± 1.3
393.15 K, 5000 kPa | 777.4 ± 1.4
393.15 K, 10000 kPa | 785.1 ± 1.7
393.15 K, 15000 kPa | 791.6 ± 2
393.15 K, 20000 kPa | 797.7 ± 2.2
393.15 K, 25000 kPa | 803.5 ± 2.5
393.15 K, 30000 kPa | 809 ± 2.7
393.15 K, 35000 kPa | 814 ± 2.9
